Measured values as given in ChEMBL document CHEMBL3596146, “Design, synthesis, and biological evaluation of a series of alkoxy-3-indolylacetic acids as peroxisome proliferator-activated receptor γ/δ agonists” (Bioorg Med Chem, 2015).
Activity calls are given as the source filed them. The rule behind the calls is not given here.

Assays:
[1] = target: T1, Peroxisome proliferator-activated receptor alpha (Homo sapiens) (UniProt Q07869); experiment: Agonist activity at PPAR-alpha (unknown origin) expressed in CV-1 cells co-transfected with tk-PPRE-luciferase vector at 10 uM after 24 hrs by transactivation assay relative to GW7647; type: cell-based
T1 sequence (whole entry): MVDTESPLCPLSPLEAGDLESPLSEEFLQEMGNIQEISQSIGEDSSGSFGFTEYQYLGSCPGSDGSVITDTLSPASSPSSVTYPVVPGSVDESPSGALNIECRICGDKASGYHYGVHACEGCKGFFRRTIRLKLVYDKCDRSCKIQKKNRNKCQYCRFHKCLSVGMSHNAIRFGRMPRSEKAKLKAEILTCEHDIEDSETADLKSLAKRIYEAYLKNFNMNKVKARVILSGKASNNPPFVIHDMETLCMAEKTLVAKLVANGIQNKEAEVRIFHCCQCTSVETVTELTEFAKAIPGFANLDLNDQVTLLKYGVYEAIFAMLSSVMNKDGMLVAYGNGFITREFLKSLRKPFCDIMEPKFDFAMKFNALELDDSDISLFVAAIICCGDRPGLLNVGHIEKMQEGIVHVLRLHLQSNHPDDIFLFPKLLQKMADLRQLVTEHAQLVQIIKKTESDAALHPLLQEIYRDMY

[2] = target: T2, Peroxisome proliferator-activated receptor gamma (Homo sapiens) (UniProt P37231); experiment: Agonist activity at PPAR-gamma (unknown origin) expressed in CV-1 cells co-transfected with tk-PPRE-luciferase vector at 10 uM after 24 hrs by transactivation assay relative to rosiglitazone; type: cell-based
T2 sequence (whole entry): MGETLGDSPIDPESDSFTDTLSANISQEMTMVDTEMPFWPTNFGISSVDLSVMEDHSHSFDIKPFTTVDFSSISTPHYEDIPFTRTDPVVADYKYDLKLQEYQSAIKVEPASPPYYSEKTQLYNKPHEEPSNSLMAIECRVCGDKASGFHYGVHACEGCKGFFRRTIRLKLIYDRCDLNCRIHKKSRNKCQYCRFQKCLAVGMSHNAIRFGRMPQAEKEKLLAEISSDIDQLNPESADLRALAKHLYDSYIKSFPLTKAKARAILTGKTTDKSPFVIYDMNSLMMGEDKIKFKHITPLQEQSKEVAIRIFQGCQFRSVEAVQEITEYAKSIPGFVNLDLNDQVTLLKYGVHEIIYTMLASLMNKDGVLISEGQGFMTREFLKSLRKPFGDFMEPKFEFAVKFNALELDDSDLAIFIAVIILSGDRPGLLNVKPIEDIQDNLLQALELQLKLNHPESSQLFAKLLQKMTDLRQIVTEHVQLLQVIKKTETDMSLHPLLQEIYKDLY

[3] = target: T3, Peroxisome proliferator-activated receptor delta (Homo sapiens) (UniProt Q03181); experiment: Agonist activity at PPAR-delta (unknown origin) expressed in HEK293t cells co-transfected with tk-PPRE-luciferase vector at 10 uM after 24 hrs by transactivation assay relative to GW0742; type: cell-based; conditions: HEK-293T
T3 sequence (whole entry): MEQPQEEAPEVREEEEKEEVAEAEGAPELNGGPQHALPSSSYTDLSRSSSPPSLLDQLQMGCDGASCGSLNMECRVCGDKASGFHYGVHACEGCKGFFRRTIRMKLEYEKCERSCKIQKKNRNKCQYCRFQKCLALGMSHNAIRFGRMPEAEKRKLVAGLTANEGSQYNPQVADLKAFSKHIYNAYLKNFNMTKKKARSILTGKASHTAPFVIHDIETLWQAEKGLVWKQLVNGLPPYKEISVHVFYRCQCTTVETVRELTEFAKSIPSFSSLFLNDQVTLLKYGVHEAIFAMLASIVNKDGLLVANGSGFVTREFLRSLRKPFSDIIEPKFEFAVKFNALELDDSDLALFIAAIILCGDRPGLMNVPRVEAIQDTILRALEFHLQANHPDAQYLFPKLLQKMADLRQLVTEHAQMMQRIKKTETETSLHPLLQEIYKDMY

[4] = Retention time of the compound by HPLC analysis; type: physicochemical

| Structure (SMILES) | Emax [1] [%] | Emax [2] [%] | Emax [3] | Retention_time [4] [min] |
| --- | --- | --- | --- | --- |
| O=C(O)Cc1c[nH]c2ccc(OCCCOc3cccc(OCc4ccccc4)c3)cc12 | 22.6 | 73.1 | 21.7% | 6.379 |
| O=C(O)Cc1c[nH]c2ccc(OCCOc3cccc(OCc4ccc(Cl)cc4)c3)cc12 | 42.8 | 79.6 | 79% | 7.623 |
| Cc1ccc(COc2cccc(OCCOc3ccc4[nH]cc(CC(=O)O)c4c3)c2)cc1 | 66.7 | 114 | 76.6% | 7.375 |
| Cc1cccc(OCCOc2ccc3c(c2)c(CC(=O)O)cn3Cc2ccccc2)c1 | 10.9 | 36.5 | 13.2% | 8.19 |
| O=C(O)Cc1cn(Cc2ccccc2)c2ccc(OCCOc3cccc(OCc4ccc(Cl)cc4)c3)cc12 | 40.7 | 81.2 | 106% | 17.1 |
| O=C(O)Cc1c[nH]c2ccc(OCCCOc3ccc(OCc4ccc(Cl)cc4)cc3)cc12 | 18.9 | 99.4 | 89.5% | 9.166 |
| O=C(O)Cc1cn(Cc2ccccc2)c2ccc(OCCCOc3cccc(Oc4ccccc4)c3)cc12 | 13.9 | 71.2 | 46.3% | 18.216 |
| COc1ccc(Oc2cccc(OCCCOc3ccc4[nH]cc(CC(=O)O)c4c3)c2)cc1 | 45 | 89.7 | 25.6% | 6.53 |
| Cc1ccc(COc2ccccc2OCCCOc2ccc3c(c2)c(CC(=O)O)cn3Cc2ccccc2)cc1 | 26.7 | 75.1 | 68.9% | 14.49 |
| O=C(O)Cc1cn(Cc2ccccc2)c2cc(OCCCOc3cccc(OCc4ccc(Cl)cc4)c3)ccc12 | 34.8 | 122 | 84.8% | 18.802 |
| CC(C)=CCn1cc(CC(=O)O)c2cc(OCCCOc3cccc(OCc4ccc(Cl)cc4)c3)ccc21 | 37.9 | 120 | 65.2% | 30.169 |
| O=C(O)Cc1cn(Cc2ccccc2)c2ccc(OCCOc3cccc(Cl)c3)cc12 | 15.3 | 23.6 | 13.7% | 8.911 |
| Cc1ccc(COc2ccccc2OCCCOc2ccc3c(CC(=O)O)c[nH]c3c2)cc1 | 10.9 | 19.2 | 64.6% | 7.422 |
| O=C(O)Cc1cn(Cc2ccccc2)c2ccc(OCCCOc3cccc(Oc4ccc(C(F)(F)F)cc4)c3)cc12 | 25.9 | 85.2 | 53.2% | 25.922 |
| O=C(O)Cc1cn(Cc2ccccc2)c2ccc(OCCCOc3ccc(OCc4ccc(Cl)cc4)cc3)cc12 | 19 | 83.7 | 94.7% | 22.989 |
| COc1ccc(COc2cccc(OCCOc3ccc4[nH]cc(CC(=O)O)c4c3)c2)cc1 | 87.5 | 93.4 | 70% | 5.651 |
| O=C(O)Cc1c[nH]c2ccc(OCCCOc3cccc(OCc4ccc(C(F)(F)F)cc4)c3)cc12 | 28.2 | 100 | 71.9% | 9.707 |
| O=C(O)Cc1c[nH]c2ccc(OCCCOc3cccc(Oc4ccc(C(F)(F)F)cc4)c3)cc12 | 61.1 | 119 | 43.2% | 9.685 |
| Cc1ccc(COc2ccccc2OCCCOc2ccc3[nH]cc(CC(=O)O)c3c2)cc1 | 41.2 | 73.4 | 35.2% | 7.257 |

| Structure (SMILES) | Emax [1] [%] | Emax [2] [%] | Emax [3] | Retention_time [4] [min] |
| --- | --- | --- | --- | --- |
| O=C(O)Cc1cn(Cc2ccccc2)c2ccc(OCCCOc3cccc(OCc4ccc(Cl)cc4Cl)c3)cc12 | 18.7 | 102 | 44.2% |  |
| Cc1ccc(COc2cccc(OCCCOc3ccc4c(CC(=O)O)c[nH]c4c3)c2)cc1 | 23.4 | 84.3 | 37.2% | 9.005 |
| O=C(O)Cc1c[nH]c2ccc(OCCOc3cccc(Cl)c3)cc12 | 15.5 | 16.8 | 16.2% | 4.608 |
| O=C(O)Cc1c[nH]c2ccc(OCCCOc3ccccc3OCc3ccc(Cl)cc3)cc12 | 21 | 16.1 | inactive | 7.547 |
| Cc1ccc(Oc2cccc(OCCCOc3ccc4c(c3)c(CC(=O)O)cn4Cc3ccccc3)c2)cc1 | 33.3 | 119 | 69.1% | 23.472 |
| O=C(O)Cc1c[nH]c2ccc(OCCCOc3cccc(OCc4ccc(Cl)cc4Cl)c3)cc12 | 59.5 | 102 | 85.3% |  |
| Cc1ccc(Oc2cccc(OCCCOc3ccc4[nH]cc(CC(=O)O)c4c3)c2)cc1 | 60.6 | 145 | 40.6% | 9.409 |
| O=C(O)Cc1cn(Cc2ccccc2)c2ccc(OCCCOc3cccc(OCc4ccc(F)cc4)c3)cc12 | 16.5 | 77.7 | 59.5% | 16.467 |
| CCCn1cc(CC(=O)O)c2cc(OCCCOc3cccc(OCc4ccc(Cl)cc4)c3)ccc21 | 66.8 | 110 | 77.1% | 21.212 |
| COc1ccc(Oc2cccc(OCCCOc3ccc4c(c3)c(CC(=O)O)cn4Cc3ccccc3)c2)cc1 | 22.3 | 71.1 | 59.5% | 7.257 |
| C=CCn1cc(CC(=O)O)c2cc(OCCCOc3cccc(OCc4ccc(Cl)cc4)c3)ccc21 | 35.8 | 104 | 71.1% | 15.057 |
| O=C(O)Cc1c[nH]c2cc(OCCCOc3cccc(OCc4ccc(Cl)cc4)c3)ccc12 | 33 | 81.8 | 32.8% | 8.836 |
| O=C(O)Cc1cn(Cc2ccccc2)c2ccc(OCCCOc3cccc(OCc4ccc(C(F)(F)F)cc4)c3)cc12 | 12.2 | 77.9 | 87.4% | 24.08 |
| O=C(O)Cc1cn(Cc2ccccc2)c2ccc(OCCCOc3cccc(OCc4ccccc4)c3)cc12 | 30.4 | 94.6 | 95.5% | 14.199 |
| Cc1ccc(COc2ccc(OCCCOc3ccc4c(c3)c(CC(=O)O)cn4Cc3ccccc3)cc2)cc1 | 18.9 | 92.6 | 93.6% | 21.33 |
| Cc1ccc(COc2cccc(OCCOc3ccc4c(c3)c(CC(=O)O)cn4Cc3ccccc3)c2)cc1 | 38.5 | 101 | 87.2% | 16.602 |
| O=C(O)Cc1c[nH]c2ccc(OCCCOc3cccc(Oc4ccccc4)c3)cc12 | 45.4 | 92.5 | 23.8% | 7.305 |
| Cc1ccc(COc2ccc(OCCCOc3ccc4[nH]cc(CC(=O)O)c4c3)cc2)cc1 | 41.2 | 91.7 | 53.3% | 7.89 |
| Cn1cc(CC(=O)O)c2cc(OCCCOc3cccc(OCc4ccc(Cl)cc4)c3)ccc21 | 37.5 | 110 | 70.8% | 13.52 |
